Measurements as given in patent US11000033B2, “Ketone or oxime compound, and herbicide” (NISSAN CHEMICAL CORPORATION, priority 2014, dated 2021).

Experiments:
Type in all cases: in vivo
Galium spurium = test: Test Example 5: herbicidal effect by foliage application, plastic box (symbol Q); conditions: 3 weeks after application
Outline: (§1)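 Leaf-applied emulsion, water-diluted to a preset herbicide dose, on two-week-old seedlings raised in a 25° C. to 30° C. greenhouse; injury rated at 3 weeks using earlier criteria.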

Cyperus difformis = test: Test Example 3: herbicidal effect by foliage application, Wagner pot (symbol E)
Outline: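 Foliar spray of water-diluted emulsion formulation at a predetermined herbicide amount onto 14-day-old plants in flooded alluvial soil (water depth 0.1–0.5 cm), greenhouse 25–30 °C; rice sown alongside. Scored 3 wk post-application on set criteria.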

rapeseed [1] = test: Test Example 4: effect on crop by soil treatment (symbol g); conditions: for g: rapeseed, effect grade on crop: 320 g/ha
Outline: (§2)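 Plants are raised in a greenhouse (25° C. to 30° C.) from spot-sown seed, which sits under about 1.5 cm of sterilized diluvial soil in a box shared with weed species.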

beet [2] = test: Test Example 5: effect on crop by foliage application, plastic box (symbol f); conditions: 3 weeks after application
Outline: (§3)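 Sterilized diluvial soil, plastic box (21 × 13 × 7 cm); spot sowing, ~1.5 cm soil cover; greenhouse 25–30° C.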

wheat = test: Test Example 5: effect on crop by foliage application, plastic box (symbol e); conditions: 3 weeks after application
Outline: as §3

beet [3] = test: Test Example 4: effect on crop by soil treatment (symbol f); conditions: for f: beet, effect grade on crop: 320 g/ha
Outline: as §2

Monochoria vaginalis = test: Test Example 1: herbicidal activity, application before weed generation in submerged conditions (symbol C)
Outline: (§4)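 Pre-emergence, paddy conditions: emulsifiable formulation diluted in water, dosed onto floodwater (4 cm depth) on sowing day. Alluvial soil; weeds sown mixed; rice transplanted at 2.5-leaf stage. Greenhouse 25–30 °C, 3 wk. Score 0–5 (5 = ≥90% kill, 0 = ≤5%).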

Lolium multiflorum Lam. = test: Test Example 5: herbicidal effect by foliage application, plastic box (symbol K); conditions: 3 weeks after application
Outline: as §1

Amaranthus retroflexus = test: Test Example 4: herbicidal effect by soil treatment (symbol N)
Outline: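 Seeds were sown in sterilized diluvial soil, covered with about 1.5 cm of soil, and the soil surface was sprayed with a water-diluted emulsion of the compound at a predetermined rate. Plants grew in a greenhouse at 25° C. to 30° C.; effects were scored visually 3 weeks after application.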

corn = test: Test Example 4: effect on crop by soil treatment (symbol c); conditions: for c: corn, effect grade on crop: 320 g/ha
Outline: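 Diluvial soil (sterilized) in boxes; seeds placed spot-wise alongside weed species; ~1.5 cm covering soil. Greenhouse, 25–30° C.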

Setaria viridis = test: Test Example 5: herbicidal effect by foliage application, plastic box (symbol G); conditions: 3 weeks after application
Outline: as §1

Scirpus juncoides = test: Test Example 1: herbicidal activity, application before weed generation in submerged conditions (symbol B)
Outline: as §4

rapeseed [4] = test: Test Example 5: effect on crop by foliage application, plastic box (symbol g); conditions: 3 weeks after application
Outline: as §3

Apera spica-venti = test: Test Example 5: herbicidal effect by foliage application, plastic box (symbol L); conditions: 3 weeks after application
Outline: as §1

[5] = application herbicide amount 320 g/ha
[6] = application herbicide amount 269 g/ha

Compound	Q: Galium spurium, herbicidal effect (criteria 0-5) (Galium spurium; 320 g/ha)	herbicidal effect on E, grade 0-5 (Cyperus difformis; [5])	g: rapeseed, effect grade on crop (rapeseed [1])	f: beet, effect on crop (criteria 0-5) (beet [2]; 320 g/ha)	e: wheat, effect on crop (criteria 0-5) (wheat; 320 g/ha)	f: beet, effect grade on crop (beet [3])	Herbicidal effect grade, C: Monochoria vaginalis (Monochoria vaginalis; [5])	K: Lolium multiflorum Lam., herbicidal effect (criteria 0-5) (Lolium multiflorum Lam.; 320 g/ha)	N: Amaranthus retroflexus, herbicidal effect grade (Amaranthus retroflexus; 320 g/ha)	c: corn, effect grade on crop (corn)	G: Setaria viridis, herbicidal effect (criteria 0-5) (Setaria viridis; 320 g/ha)	Herbicidal effect grade, B: Scirpus juncoides (Scirpus juncoides; [5])	g: rapeseed, effect on crop (criteria 0-5) (rapeseed [4]; 320 g/ha)	L: Apera spica-venti, herbicidal effect (criteria 0-5) (Apera spica-venti; 320 g/ha)	other results
CON=C(CC1CC(O)=C(c2c(C)cc(C)cc2C)C1=O)c1ccc(F)cc1 (stereo not shown) [1-133]	0 (Herbicidal ratio of 5% or lower (almost no effect))	0 (Herbicidal ratio of 5% or lower (almost no effect))	0 (Herbicidal ratio of 5% or lower (almost no effect))	3 (Herbicidal ratio of 40% or higher and lower than 70%)	0 (Herbicidal ratio of 5% or lower (almost no effect))	0 (Herbicidal ratio of 5% or lower (almost no effect))	0 (Herbicidal ratio of 5% or lower (almost no effect))	5 (Herbicidal ratio of 90% or more (almost completely withered))	0 (Herbicidal ratio of 5% or lower (almost no effect))	0 (Herbicidal ratio of 5% or lower (almost no effect))	4 (Herbicidal ratio of 70% or higher and lower than 90%)	0 (Herbicidal ratio of 5% or lower (almost no effect))	4 (Herbicidal ratio of 70% or higher and lower than 90%)	2 (Herbicidal ratio of 20% or higher and lower than 40%)	
CON=C(C)CC1CC(OC(=O)CSc2ccccc2)=C(c2c(C)cc(C)cc2C)C1=O (stereo not shown) [1-134]	4 (Herbicidal ratio of 70% or higher and lower than 90%)	5 (Herbicidal ratio of 90% or more (almost completely withered))	0 (Herbicidal ratio of 5% or lower (almost no effect))	0 (Herbicidal ratio of 5% or lower (almost no effect))	5 (Herbicidal ratio of 90% or more (almost completely withered))	0 (Herbicidal ratio of 5% or lower (almost no effect))	1 (Herbicidal ratio of 5% or higher and lower than 20%)	5 (Herbicidal ratio of 90% or more (almost completely withered))	4 (Herbicidal ratio of 70% or higher and lower than 90%)	5 (Herbicidal ratio of 90% or more (almost completely withered))	5 (Herbicidal ratio of 90% or more (almost completely withered))	5 (Herbicidal ratio of 90% or more (almost completely withered))	4 (Herbicidal ratio of 70% or higher and lower than 90%)	5 (Herbicidal ratio of 90% or more (almost completely withered))	
CON=C(C)CC1CC(OC(=O)CN(C)C(=O)c2ccccc2)=C(c2c(C)cc(C)cc2C)C1=O (stereo not shown) [1-139]	3 (Herbicidal ratio of 40% or higher and lower than 70%)	5 (Herbicidal ratio of 90% or more (almost completely withered))	1 (Herbicidal ratio of 5% or higher and lower than 20%)	0 (Herbicidal ratio of 5% or lower (almost no effect))	5 (Herbicidal ratio of 90% or more (almost completely withered))	0 (Herbicidal ratio of 5% or lower (almost no effect))	1 (Herbicidal ratio of 5% or higher and lower than 20%)	5 (Herbicidal ratio of 90% or more (almost completely withered))	3 (Herbicidal ratio of 40% or higher and lower than 70%)	5 (Herbicidal ratio of 90% or more (almost completely withered))	5 (Herbicidal ratio of 90% or more (almost completely withered))	4 (Herbicidal ratio of 70% or higher and lower than 90%)	4 (Herbicidal ratio of 70% or higher and lower than 90%)	5 (Herbicidal ratio of 90% or more (almost completely withered))	
CC(=O)C(C)C1CC(O)=C(c2c(C)cc(C)cc2C)C1=O (stereo not shown) [2-005]															Q: Galium spurium, herbicidal effect grade (Galium spurium; 269 g/ha): 0 (Herbicidal ratio of 5% or lower (almost no effect)); herbicidal effect on E, grade 0-5 (Cyperus difformis; [6]): 4 (Herbicidal ratio of 70% or higher and lower than 90%); g: rapeseed, effect on crop grade (rapeseed [1]; [6]): 4 (Herbicidal ratio of 70% or higher and lower than 90%); f: beet, effect on crop grade (beet [2]; 269 g/ha): 2 (Herbicidal ratio of 20% or higher and lower than 40%); e: wheat, effect on crop grade (wheat; 269 g/ha): 0 (Herbicidal ratio of 5% or lower (almost no effect)); f: beet, effect on crop grade (beet [3]; [6]): 0 (Herbicidal ratio of 5% or lower (almost no effect)); Herbicidal effect grade, C: Monochoria vaginalis (Monochoria vaginalis; [6]): 0 (Herbicidal ratio of 5% or lower (almost no effect)); K: Lolium multiflorum Lam., herbicidal effect grade (Lolium multiflorum Lam.; 269 g/ha): 5 (Herbicidal ratio of 90% or more (almost completely withered)); N: Amaranthus retroflexus, herbicidal effect grade (Amaranthus retroflexus; [6]): 0 (Herbicidal ratio of 5% or lower (almost no effect)); c: corn, effect on crop grade (corn; [6]): 0 (Herbicidal ratio of 5% or lower (almost no effect)); G: Setaria viridis, herbicidal effect grade (Setaria viridis; 269 g/ha): 4 (Herbicidal ratio of 70% or higher and lower than 90%); Herbicidal effect grade, B: Scirpus juncoides (Scirpus juncoides; [6]): 0 (Herbicidal ratio of 5% or lower (almost no effect)); g: rapeseed, effect on crop grade (rapeseed [4]; 269 g/ha): 4 (Herbicidal ratio of 70% or higher and lower than 90%); L: Apera spica-venti, herbicidal effect grade (Apera spica-venti; 269 g/ha): 3 (Herbicidal ratio of 40% or higher and lower than 70%)
CC#Cc1cc(C)c(C2=C(O)CC(CC(=NOC)C(C)C)C2=O)c(C)c1 (stereo not shown) [9-006]															Q: Galium spurium, herbicidal effect grade (Galium spurium; 320 g/ha): 0 (Herbicidal ratio of 5% or lower (almost no effect)); E herbicidal effect grade (Cyperus difformis; application herbicide amount 320 g/ha, Table 24): 5 (Herbicidal ratio of 90% or more (almost completely withered)); Effect on crop grade, g: rapeseed (rapeseed [1]; [5]): 3 (Herbicidal ratio of 40% or higher and lower than 70%); f: beet, effect on crop grade (beet [2]; 320 g/ha): 0 (Herbicidal ratio of 5% or lower (almost no effect)); e: wheat, effect on crop grade (wheat; 320 g/ha): 5 (Herbicidal ratio of 90% or more (almost completely withered)); Effect on crop grade, f: beet (beet [3]; [5]): 0 (Herbicidal ratio of 5% or lower (almost no effect)); C (Monochoria vaginalis) herbicidal effect grade (Monochoria vaginalis; [5]): 0 (Herbicidal ratio of 5% or lower (almost no effect)); K: Lolium multiflorum Lam., herbicidal effect grade (Lolium multiflorum Lam.; 320 g/ha): 5 (Herbicidal ratio of 90% or more (almost completely withered)); Herbicidal effect grade, N: Amaranthus retroflexus (Amaranthus retroflexus; [5]): 2 (Herbicidal ratio of 20% or higher and lower than 40%); Effect on crop grade, c: corn (corn; [5]): 5 (Herbicidal ratio of 90% or more (almost completely withered)); G: Setaria viridis, herbicidal effect grade (Setaria viridis; 320 g/ha): 5 (Herbicidal ratio of 90% or more (almost completely withered)); B (Scirpus juncoides) herbicidal effect grade (Scirpus juncoides; [5]): 4 (Herbicidal ratio of 70% or higher and lower than 90%); g: rapeseed, effect on crop grade (rapeseed [4]; 320 g/ha): 4 (Herbicidal ratio of 70% or higher and lower than 90%); L: Apera spica-venti, herbicidal effect grade (Apera spica-venti; 320 g/ha): 5 (Herbicidal ratio of 90% or more (almost completely withered))
